In one experiment the target is wild-type EGFR kinase (Homo sapiens (Human), UniProt P00533). Conditions: read-out: EGFR WT (IC50/μM); z'-lyte assay, 10 μM ATP.
A further experiment has as its system NIH3T3 cells. Nature of the experiment: Toxicity test on NIH3T3 cells by MTT assay. The experiment is classed as cell-based.
The next experiment deals with H1975 cells. Nature of the experiment: Cell growth inhibition by MTT assay, H1975 cells.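 As to all read-outs here: MTT read-out in 96-well plates after 72 h compound exposure of H1975 and A431 cells, with selectivity given as the A431 IC50 divided by the H1975 IC50.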 The experiment is classed as cell-based. Conditions: for IC50: MTT assay, 72 hours; for Selective inhibitory activity against cell growth [IC50 (A431 cell)/IC50 (H1975 cell)]: ratio of MTT IC50 values.
For experiment [1], the target named is T790M/L858R double mutant EGFR kinase (Homo sapiens (Human), UniProt P00533, L858R/T790M). Nature of the experiment: z'-lyte assay of inhibitory activity on T790M/L858R double mutant EGFR kinase. The experiment is classed as biochemical. Conditions: for Selective inhibitory activity against enzymes [IC50 (EGFR WT)/IC50 (T790M/L858R)]: ratio of enzyme IC50 values; for IC50: z'-lyte assay, 25 μM ATP.

Another experiment has as its system A431 cells. Nature of the experiment: Cell growth inhibition by MTT assay, A431 cells. The experiment is classed as cell-based.
Experiment [2] concerns the target EGFR phosphorylation in A431 (EGFR wild-type) cells (Homo sapiens (Human), UniProt P00533). Briefly: Inhibition of EGFR phosphorylation in A431 cells (ELISA). The experiment is classed as cell-based. Particulars: 1 h compound treatment, EGF stimulation, read-out: A431 cell (IC50/μM).
Description: (§1) In the following methods, the reagents used, the preparation methods of solutions, the cell treatment and the preparation steps of the lysis solution, as well as the ELISA assay steps, were carried out according to the instructions of R&D DYC3570, R&D DYC1095E and R&D DYC1095BE.
I. Reagents and Solutions
(§2) Cell lysis solution: Cell lysis buffer+10 μg/mL Aprotinin (Sigma)+10 μg/mL Leupeptin (Sigma), prepared on site.
(§3) Wash buffer: PBS buffer containing 0.05% (v/v) Tween-20.
(§4) Blocking solution: PBS buffer containing 1% (w/v) BSA.
3.1 A431 Cell Treatment and Testing Procedures
(1) A431 cells (purchased from the Cell Bank of the Type Culture Collection Committee, Chinese Academy of Sciences) were seeded in 96-well plates at a density of 1×10^4/well in 90 μl of DMEM medium containing 10% FBS and cultured at 37° C. in 5% CO2 overnight.
(2) The A431 cell culture medium was replaced with 90 μl of serum-free DMEM medium and the plate was cultured overnight.
(3) The compound to be tested was diluted according to the drug dilution method in MTT assay. 10 μL of the diluted compound or diluted DMSO was added to the corresponding wells of the cell culture plate, and the final concentration of DMSO was 0.5%. The plate was cultured at 37° C. in 5% CO2 for 1 hour. […] The cells without EGF and drug treatment were used as cell control, and the cells treated with EGF without drugs were used as EGF control.
(4) The medium was removed and then 100 μL of the cell lysis solution was added. The plate was sealed and placed in a refrigerator at −80° C. overnight.
The assay was conducted according to the instructions given in R&D DYC3570E.
(1) R&D capture antibody (DYC3570E) was diluted with PBS in the proportion of 1:180.
(§5) (2) The plate was washed 3 times with 360 μL of the wash buffer.
(3) 200 μL of the blocking solution was added and the plate was incubated at 25° C. with shaking for 2 hours.
(4) The plate was washed 3 times with 360 μL of wash buffer.
(§6) (5) 40 μL of cell lysis buffer and 60 μL of cell lysis solution were added and the plate was incubated at 25° C. with shaking for 2 hours.
(§7) (6) The plate was washed 3 times with 360 μL of the wash buffer.
(§8) (7) The detection antibody was diluted with the detection antibody diluent in the proportion specified in the instructions of the kit. 100 μL of the diluted antibody was added to each well and the plate was incubated at 25° C. with shaking in dark for 1 h.
(8) The plate was washed 3 times with 360 μL of the wash buffer.
(9) A reagent and B reagent in TMB substrate (R&D DY999) were mixed in 1:1. 100 μL of the mixture was added to each well and incubated in dark at 25° C. with shaking for 20 min.
(§9) (10) 50 μL of 2N H2SO4 was added to each well.
(11) The plate was read with a microplate reader (Thermo Multiskan K3). OD 450 values and OD570 values of the cell control, blank control, and drug treatment wells were measured. ODEGF, ODdrug and ODcell were obtained by subtracting the corresponding OD570 value from the OD 450 value of the same well.
3.3 Data Analysis Inhibition rate (%)=100%×(ODEGF−ODdrug)/(ODEGF−ODcell)
Experiment [3] addresses EGFR phosphorylation in H1975 (EGFR T790M mutant) cells (Homo sapiens (Human), UniProt P00533, L858R/T790M). Nature of the experiment: Inhibition of EGFR phosphorylation in H1975 cells (ELISA).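 As to all read-outs here: Phospho-EGFR in cell lysates measured by capture-antibody ELISA with TMB substrate after compound exposure, cells given DMSO alone (0.5% final) serving as control.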 The class given is cell-based. Conditions: for IC50: ELISA of EGFR phosphorylation, 1 h compound treatment, read-out: H1975 cell (IC50/μM); for Selective inhibitory activity against targets at the cell level [IC50 (A431 cell)/IC50 (H1975 cell)]: ratio of ELISA IC50 values.
Description: as §1, §2, §3, §4
(1) H1975 cells (purchased from the Cell Bank of the Type Culture Collection Committee, Chinese Academy of Sciences) were seeded into 96-well plates at a density of 1×10^4/well, each cell containing 90 μl of RPMI1640 medium with 10% (V/V) FBS, and cultured overnight at 37° C. in 5% (v/v) CO2.
(2) The compounds to be tested were diluted in accordance with the drug dilution method in the MTT assay. 10 μL of the diluted compound or diluted DMSO was added to the corresponding wells of the cell culture plate, and the final concentration of DMSO was 0.5% (V/V). The plate was cultured at 37° C. in 5% (v/v) CO2 for 1 h. The cell culture system treated with DMSO alone was used as cell control.
(3) The medium was removed and then 100 μL of cell lysis solution was added. The plate was sealed and placed in a refrigerator at −80° C. overnight. The cell lysis buffer was used as blank control.
The assay was conducted according to the instructions given in R&D DYC1095E or R&D DYC1095BE.
(1) R&D capture antibody ((DYC1095BE or DYC1095E)) was diluted with PBS in the proportion of 1:180.
as §5
(3) 300 μL of the blocking solution was added and the plate was incubated at 25° C. with shaking for 2 hours.
(4) The plate was washed 3 times with 360 μL of the wash buffer.
as §6, §7, §8
(8) The plate was washed 3 times with 360 μL of wash buffer.
(9) A reagent and B reagent in the TMB substrate (R&D DY999) were mixed in 1:1. 100 μL of the mixture was added to each well and incubated in dark at 25° C. with shaking for 20 min.
as §9
(11) The plate was read with a microplate reader (Thermo Multiskan K3). OD 450 values and OD570 values of the cell control, blank control, and drug treatment wells were measured. ODcell, ODblank and ODdrug treatment were obtained by subtracting the corresponding OD570 value from the OD 450 value of the same well.
2.3 Data Analysis Inhibition rate (%)=100%×(ODcell−ODdrug treatment)/(ODcell−ODblank)

Each structure is given as a SMILES string.

T790M/L858R double mutant EGFR kinase, sequence (P00533 25-1210 T790M/L858R): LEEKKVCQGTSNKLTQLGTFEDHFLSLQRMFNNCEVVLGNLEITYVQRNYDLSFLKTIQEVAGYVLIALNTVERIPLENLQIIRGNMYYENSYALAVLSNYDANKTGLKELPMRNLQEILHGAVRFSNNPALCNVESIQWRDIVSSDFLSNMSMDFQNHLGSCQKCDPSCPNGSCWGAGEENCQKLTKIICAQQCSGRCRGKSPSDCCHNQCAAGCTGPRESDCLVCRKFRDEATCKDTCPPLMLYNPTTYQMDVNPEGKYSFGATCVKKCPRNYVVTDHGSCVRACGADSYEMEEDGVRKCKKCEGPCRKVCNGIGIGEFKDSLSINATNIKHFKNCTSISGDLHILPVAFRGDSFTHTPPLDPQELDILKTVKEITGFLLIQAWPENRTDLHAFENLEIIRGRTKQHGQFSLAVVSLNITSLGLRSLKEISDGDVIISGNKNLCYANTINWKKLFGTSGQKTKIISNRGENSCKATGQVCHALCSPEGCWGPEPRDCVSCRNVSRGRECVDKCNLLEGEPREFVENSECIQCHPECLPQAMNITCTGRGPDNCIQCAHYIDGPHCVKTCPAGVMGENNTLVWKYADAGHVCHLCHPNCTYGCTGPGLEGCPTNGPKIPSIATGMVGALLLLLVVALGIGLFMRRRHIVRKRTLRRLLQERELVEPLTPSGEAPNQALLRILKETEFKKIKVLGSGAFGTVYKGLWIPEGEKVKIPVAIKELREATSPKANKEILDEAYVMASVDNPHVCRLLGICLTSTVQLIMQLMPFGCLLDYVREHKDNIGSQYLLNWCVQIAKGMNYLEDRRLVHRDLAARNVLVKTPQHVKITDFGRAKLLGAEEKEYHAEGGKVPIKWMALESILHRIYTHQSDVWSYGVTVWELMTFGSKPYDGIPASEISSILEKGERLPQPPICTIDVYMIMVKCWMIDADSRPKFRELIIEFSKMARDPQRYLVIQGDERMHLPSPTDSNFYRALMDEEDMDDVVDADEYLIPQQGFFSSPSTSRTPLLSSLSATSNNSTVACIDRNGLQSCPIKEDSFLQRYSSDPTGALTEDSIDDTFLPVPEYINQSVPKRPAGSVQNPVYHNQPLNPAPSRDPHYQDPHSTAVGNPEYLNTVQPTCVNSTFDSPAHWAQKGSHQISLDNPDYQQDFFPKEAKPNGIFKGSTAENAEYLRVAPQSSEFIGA
EGFR phosphorylation in H1975 (EGFR T790M mutant) cells, sequence (P00533 25-1210 T790M/L858R): as above
EGFR phosphorylation in A431 (EGFR wild-type) cells, sequence (P00533 25-1210): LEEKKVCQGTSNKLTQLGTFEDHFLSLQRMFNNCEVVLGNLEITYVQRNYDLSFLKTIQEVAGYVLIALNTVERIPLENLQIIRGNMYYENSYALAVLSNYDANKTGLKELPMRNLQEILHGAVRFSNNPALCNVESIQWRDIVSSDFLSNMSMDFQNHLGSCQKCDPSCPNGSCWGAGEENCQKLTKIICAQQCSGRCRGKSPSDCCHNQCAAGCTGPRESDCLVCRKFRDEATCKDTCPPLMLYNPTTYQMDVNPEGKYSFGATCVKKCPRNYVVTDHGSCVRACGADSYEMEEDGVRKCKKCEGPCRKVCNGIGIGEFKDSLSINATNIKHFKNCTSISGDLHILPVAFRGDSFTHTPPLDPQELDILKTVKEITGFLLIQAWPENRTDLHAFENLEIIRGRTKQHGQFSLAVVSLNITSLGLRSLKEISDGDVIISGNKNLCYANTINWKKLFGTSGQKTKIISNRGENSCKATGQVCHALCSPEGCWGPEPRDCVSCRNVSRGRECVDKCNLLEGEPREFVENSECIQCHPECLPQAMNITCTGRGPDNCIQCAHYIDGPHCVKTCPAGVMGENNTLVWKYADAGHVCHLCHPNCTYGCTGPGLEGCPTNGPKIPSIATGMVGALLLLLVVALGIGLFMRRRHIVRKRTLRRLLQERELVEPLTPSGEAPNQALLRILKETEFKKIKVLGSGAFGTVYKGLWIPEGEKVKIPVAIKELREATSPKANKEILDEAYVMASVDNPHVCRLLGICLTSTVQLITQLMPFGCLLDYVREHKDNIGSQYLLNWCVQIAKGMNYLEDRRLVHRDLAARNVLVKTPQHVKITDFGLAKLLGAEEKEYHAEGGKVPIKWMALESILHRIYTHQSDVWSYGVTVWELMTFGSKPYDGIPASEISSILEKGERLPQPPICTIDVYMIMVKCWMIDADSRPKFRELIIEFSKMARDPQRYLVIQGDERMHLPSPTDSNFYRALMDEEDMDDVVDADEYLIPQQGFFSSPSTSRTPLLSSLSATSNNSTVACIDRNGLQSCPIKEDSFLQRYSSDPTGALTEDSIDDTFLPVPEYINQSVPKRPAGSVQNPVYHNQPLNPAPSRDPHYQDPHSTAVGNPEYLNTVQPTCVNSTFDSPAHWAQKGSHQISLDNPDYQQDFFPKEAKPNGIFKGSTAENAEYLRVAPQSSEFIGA
wild-type EGFR kinase, sequence (P00533 25-1210): as above
Description for NIH3T3 cells: The steps of the MTT assay were carried out using methods well known to those skilled in the art, and all the reagents used in the methods are commercially available.
After the first wash, another 1.5 mL of trypsin/EDTA was added to digest the adherent cells until the cells detached. Then 3.5 mL of the culture medium was added to terminate the digestion. The digested cell suspension was transferred to a 15 mL centrifuge tube and centrifuged at 1300 rpm for 3 minutes. The supernatant was discarded and the cells were resuspended in fresh medium. The cells were then counted and diluted to the following concentrations: 27,800 cells per milliliter of H1975 cells, 33,300 cells per milliliter of A431 cells and NIH3T3 cells (purchased from the Cell Bank of the Type Culture Collection Committee, Chinese Academy of Sciences).
After the drug was added, the cells were incubated in an incubator for 72 hours. 10 μL of 5 mg/ml MTT (Sigma, M5655) solution was added to each well. The 96-well plate was then incubated in a 37° C. and 5% CO2 incubator for 4 h.
The plate was then centrifuged at 2000 rpm for 5 min. After the supernatant was removed, 150 μl of DMSO was added to each well and the plate was shaken in a shaker until all crystal violet was dissolved.
Description for wild-type EGFR kinase: All reagents used in the following z′-lyte assay were purchased from Invitrogen.
The working concentrations of each component in 10 μL wild-type EGFR kinase reaction system were: 10 μM ATP, 0.8 ng/μL wild-type EGFR kinase, 2 μM Tyr04 substrate (Invitrogen, PV3193). The concentration of DMSO after addition of the compound to be tested was 2 vol %.
10 mM drug stock solution was dissolved at room temperature and gradiently diluted to a final concentration of 4-0.002 μM with 8 vol % DMSO solution. […] Then 2.5 μl of ATP was added to initiate the reaction. Wherein, ATP was replaced by the reaction buffer in well C1, no drug was added to well C2, and the phosphorylated substrate was added to well C3 according to the instructions. The mixture was allowed to react at 25° C. in a shaker in dark for 60 min. 5 μL of Development Reagent B (Invitrogen, diluted with TR-FRET dilution buffer) was added and allowed to react at room temperature in the shaker for 60 minutes.
The inhibition rate was calculated according to the following method (refer to the instructions of Invitrogen, PV3193):
1. ER=Coumarin Emission (450 nm)/Fluorescein Emission (520 nm)
The half-inhibitory concentration IC50 was obtained through fitting calculation by using XLFIT 5.0 software (IDBS, UK).

As to `C=CC(=O)Nc1cc(Nc2ncc3ccc(-c4cnc5ccccc5c4)n3n2)c(OC)cc1N(C)CCN(C)C` [Compound J-10, N-(2-((2-(dimethylamino)ethyl)(methyl)amino)-4-methoxy-5-(7-(quinolin-3-yl)pyrrolo[1,2-f][1,2,4]triazin-2-ylamino)phenyl)acrylamide], the IC50 was 0.003 µM on wild-type EGFR kinase; 3.27 µM in the experiment on NIH3T3 cells (72 hours); 0.009 µM in the experiment on H1975 cells; 0.001 µM in experiment [1]; 0.147 µM in the experiment with A431 cells (72 hours). In the experiment with H1975 cells, the “Selective inhibitory activity against cell growth [IC50 (A431 cell)/IC50 (H1975 cell)]” value came to 16.3. For the same compound, in experiment [1], the “Selective inhibitory activity against enzymes [IC50 (EGFR WT)/IC50 (T790M/L858R)]” value was found to be 3.
Regarding `C=CC(=O)Nc1cc(Nc2ncc3ccc(C4CC4)n3n2)c(OC)cc1N(C)CCN(C)C` [Compound J-8, N-(5(7-cyclopropylpyrrolo[1,2-f][1,2,4]triazin-2-ylamino)-2-((2-(dimethylamino)ethyl)(methyl)amino)-4-methoxyphenyl)acrylamide], the IC50 worked out at 0.495 µM in experiment [2]; 0.163 µM in experiment [3]; 0.112 µM at wild-type EGFR kinase; 0.097 µM in the experiment on H1975 cells; 0.002 µM in experiment [1]; 3.19 µM in the experiment with A431 cells (72 hours). Besides, the “Selective inhibitory activity against targets at the cell level [IC50 (A431 cell)/IC50 (H1975 cell)]” value in experiment [3] is listed as 3. Further, the “Selective inhibitory activity against cell growth [IC50 (A431 cell)/IC50 (H1975 cell)]” value with H1975 cells is on record as 32.9. In experiment [1], the “Selective inhibitory activity against enzymes [IC50 (EGFR WT)/IC50 (T790M/L858R)]” value came out at 56.
In the case of `C=CC(=O)Nc1cc(Nc2ncc3c(C)cc(-c4cnn(C)c4)n3n2)c(OC)cc1N(C)CCN(C)C` [Compound J-20, N-(2-((2-(dimethylamino)ethyl)(methyl)amino)-4-methoxy-5-(5-methyl-7-(1-methyl-1H-pyrazol-4-yl)pyrrolo[1,2-F][1,2,4]triazin-2-ylamino)phenyl)acrylamide], the IC50 at wild-type EGFR kinase amounted to 0.294 µM. For the same compound, in experiment [1], the “Selective inhibitory activity against enzymes [IC50 (EGFR WT)/IC50 (T790M/L858R)]” value was 24.5 and the IC50 was 0.012 µM.
As to `C=CC(=O)Nc1cc(Nc2cn3c(-c4ccn(C)c4)cnc3cn2)c(OC)cc1N(C)CCN(C)C` [Compound J-16, N-(2-((2-(dimethylamino)ethyl)(methyl)amino)-4-methoxy-5-(3(1-methyl-1H-pyrrol-3-yl)imidazo[1,2-a]pyrazin-6-ylamino)phenyl)acrylamide], the IC50 in experiment [2] is 0.211 µM; in experiment [3] it was 0.171 µM; with NIH3T3 cells (Mus musculus, NIH3T3, 72 hours) it was greater than 10 µM; in the experiment on H1975 cells (Homo sapiens, NCI-H1975), 0.388 µM; with A431 cells (Homo sapiens, A-431, 72 hours) it was 1.15 µM. For the same compound, the “Selective inhibitory activity against targets at the cell level [IC50 (A431 cell)/IC50 (H1975 cell)]” value in experiment [3] worked out at 1.2. Besides, the “Selective inhibitory activity against cell growth [IC50 (A431 cell)/IC50 (H1975 cell)]” value in the experiment with H1975 cells came to 3.
`C=CC(=O)Nc1cc(Nc2ncc3ccc(C4CC4)n3n2)c(OC)cc1N1CCC(N(C)C)CC1` [Compound J-15, N-(5(7-cyclopropylpyrrolo[1,2-f][1,2,4]triazin-2-ylamino)-2-(4-(dimethylamino)piperidin-1-yl)-4-methoxyphenyl)acrylamide]: the IC50 on wild-type EGFR kinase is greater than 1 µM. In addition, in experiment [1], the “Selective inhibitory activity against enzymes [IC50 (EGFR WT)/IC50 (T790M/L858R)]” value was 3.8 and the IC50 came to 0.262 µM.
`C=CC(=O)Nc1cc(Nc2ncc3ccc(-c4cnc5c(ccn5C)c4)n3n2)c(OC)cc1N(C)CCN(C)C` [Compound J-7, N-(2-((2-(dimethylamino)ethyl)(methyl)amino)-4-methoxy-5-(7-(1-methyl-1H-pyrrolo[2,3-b]pyridin-5-yl)pyrrolo[1,2-f][1,2,4]triazin-2-ylamino)phenyl)acrylamide]: the IC50 was determined as 0.005 µM on wild-type EGFR kinase; 3.38 µM with NIH3T3 cells (72 hours); 0.01 µM with H1975 cells; 0.002 µM in experiment [1]; 0.231 µM with A431 cells (72 hours). Moreover, the “Selective inhibitory activity against cell growth [IC50 (A431 cell)/IC50 (H1975 cell)]” value in the experiment with H1975 cells is recorded as 23.1. Moreover, the “Selective inhibitory activity against enzymes [IC50 (EGFR WT)/IC50 (T790M/L858R)]” value in experiment [1] worked out at 2.5.
Consider `CN(C)C/C=C/C(=O)Nc1cc2c(Nc3ccc(F)c(Cl)c3)ncnc2cc1O[C@H]1CCOC1` [BIBW2992, alfatinib, reference compound], for which the IC50 worked out at 2.75 µM in the experiment on NIH3T3 cells (Mus musculus, NIH3T3, 72 hours) and 0.088 µM in the experiment on H1975 cells (Homo sapiens, NCI-H1975).
As to `C=CC(=O)Nc1cc(Nc2cn3c(-c4cnn(C)c4)cnc3cn2)c(OC)cc1N(C)CCN(C)C` [Compound J-18, N-(2-((2-(dimethylamino)ethyl)(methyl)amino)-4-methoxy-5-(3(-methyl-1H-pyrazol-4-yl)imidazo[1,2-α]pyrazin-6-ylamino)phenyl)acrylamide], the values for the IC50 with NIH3T3 cells (72 hours), in the experiment with H1975 cells and with A431 cells (72 hours) were greater than 10 µM, 0.251 µM and 1.56 µM, respectively. Also, the “Selective inhibitory activity against cell growth [IC50 (A431 cell)/IC50 (H1975 cell)]” value in the experiment on H1975 cells turned out to be 6.2.
As to `C=CC(=O)Nc1cc(Nc2ncc3c(C)cc(-c4cnn(C)c4)n3n2)c(OC)cc1N1CCC(N(C)C)CC1` [Compound J-21, N-(2-(4-(dimethylamino)piperidin-1-yl)-4-methoxy-5-(5-methyl-7-(1-methyl-1H-pyrazol-4-yl)pyrrolo[1,2-F][1,2,4]triazin-2-ylamino)phenyl)acrylamide], on wild-type EGFR kinase, the IC50 is greater than 1 µM. Moreover, in experiment [1], the “Selective inhibitory activity against enzymes [IC50 (EGFR WT)/IC50 (T790M/L858R)]” value was determined as 3.4 and the IC50 stood at 0.294 µM.
As for `C=CC(=O)Nc1cc(Nc2cn3c(-c4cccnc4)cnc3cn2)c(OC)cc1N(C)CCN(C)C` [Compound J-17, N-(2-((2-(dimethylamino)ethyl)(methyl)amino)-4-methoxy-5-(3(pyridin-3-yl)imidazo[1,2-a]pyrazin-6-ylamino)phenyl)acrylamide], the IC50 was 1.16 µM in experiment [2]; 0.734 µM in experiment [3]; greater than 10 µM with NIH3T3 cells (Mus musculus, NIH3T3, 72 hours); 0.424 µM with H1975 cells (Homo sapiens, NCI-H1975); 2.95 µM in the experiment with A431 cells (Homo sapiens, A-431, 72 hours). The “Selective inhibitory activity against targets at the cell level [IC50 (A431 cell)/IC50 (H1975 cell)]” value in experiment [3] is listed as 1.6. Besides, the “Selective inhibitory activity against cell growth [IC50 (A431 cell)/IC50 (H1975 cell)]” value in the experiment with H1975 cells is 7.
As for `C=CC(=O)Nc1cc(Nc2cn3c(-c4cnn(C)c4)cnc3cn2)c(OC)cc1N1CCC(N(C)C)CC1` [Compound J-19, N-(2-(4-(dimethylamino)piperidin-1-yl)-4-methoxy-5-(3(1-methyl-1H-pyrazol-4-yl)imidazo[1,2-α]pyrazinyl 6-amino)phenyl)acrylamide], the IC50 in experiment [2] is 0.327 µM; in experiment [3] it was 0.289 µM; with NIH3T3 cells (72 hours), greater than 10 µM; in the experiment on H1975 cells, 0.243 µM; with A431 cells (72 hours) it was 1.21 µM. Further, the “Selective inhibitory activity against targets at the cell level [IC50 (A431 cell)/IC50 (H1975 cell)]” value in experiment [3] came to 1.13. For the same compound, in the experiment with H1975 cells, the “Selective inhibitory activity against cell growth [IC50 (A431 cell)/IC50 (H1975 cell)]” value was 5.
Regarding `C=CC(=O)Nc1cc(Nc2ncc3ccc(C)n3n2)c(OC)cc1N1CCC(N(C)C)CC1` [Compound J-14, N-(2-(4-(dimethylamino)piperidin-1-yl)-4-methoxy-5-(7-methylpyrrolo[1,2-f][1,2,4]triazin-2-ylamino)phenyl)acrylamide], the IC50 in the experiment on NIH3T3 cells (72 hours) was found to be 7.77 µM; with H1975 cells, 0.126 µM; in the experiment on A431 cells (72 hours) it was 3.56 µM.
